Experimental data reported in ChEMBL document CHEMBL3272011, “Aminobenzoic acid diuretics. 9. 3,4-Disubstituted 5-acylaminobenzoic acids and related compounds” (1977).
Active and inactive are the calls of the source. The calls are words filed in the database; no cut-off is given here.

Tests used:
Canis familiaris [1] = assay: Diuretic effect in mongrel dog assessed as urinary excretion of Cl- at 1 mg/kg, iv after 3 hrs (reference value: 0.08 +/- 0.02 mequiv/kg); assay type: functional, Canis lupus familiaris, Urine
Canis familiaris [2] = assay: Diuretic effect in mongrel dog assessed as urinary excretion of water at 1 mg/kg, iv after 3 hrs (reference value: 0.93 +/- 0.35 ml/kg); assay type: functional, Canis lupus familiaris, Urine
Canis familiaris [3] = assay: Diuretic effect in mongrel dog assessed as urinary excretion of K+ at 1 mg/kg, iv after 3 hrs (reference value: 0.16 +/- 0.01 mequiv/kg); assay type: functional, Canis lupus familiaris, Urine
Canis familiaris [4] = assay: Diuretic effect in mongrel dog assessed as urinary excretion of Na+ at 1 mg/kg, iv after 3 hrs (reference value: 0.10 +/- 0.02 mequiv/kg); assay type: functional, Canis lupus familiaris, Urine
Canis familiaris [5] = assay: Diuretic effect in mongrel dog assessed as urinary excretion of water at 1 mg/kg, po after 3 hrs (reference value: 0.93 +/- 0.35 ml/kg); assay type: functional
Canis familiaris [6] = assay: Diuretic effect in mongrel dog assessed as urinary excretion of water at 0.25 mg/kg, po after 3 hrs (reference value: 0.93 +/- 0.35 ml/kg); assay type: functional, Canis lupus familiaris, Urine
Canis familiaris [7] = assay: Diuretic effect in mongrel dog assessed as urinary excretion of Cl- at 1 mg/kg, po after 3 hrs (reference value: 0.08 +/- 0.02 mequiv/kg)
Canis familiaris [8] = assay: Diuretic effect in mongrel dog assessed as urinary excretion of Cl- at 0.25 mg/kg, po after 3 hrs (reference value: 0.08 +/- 0.02 mequiv/kg); assay type: functional, Canis lupus familiaris, Urine
Canis familiaris [9] = assay: Diuretic effect in mongrel dog assessed as urinary excretion of K+ at 0.25 mg/kg, po after 3 hrs (reference value: 0.16 +/- 0.01 mequiv/kg); assay type: functional, Canis lupus familiaris, Urine
Canis familiaris [10] = assay: Diuretic effect in mongrel dog assessed as urinary excretion of Na+ at 0.25 mg/kg, po after 3 hrs (reference value: 0.10 +/- 0.02 mequiv/kg); assay type: functional, Canis lupus familiaris, Urine
Canis familiaris [11] = assay: Diuretic effect in mongrel dog assessed as urinary excretion of K+ at 1 mg/kg, po after 3 hrs (reference value: 0.16 +/- 0.01 mequiv/kg); assay type: functional, Canis lupus familiaris, Urine
Canis familiaris [12] = assay: Diuretic effect in mongrel dog assessed as urinary excretion of Na+ at 1 mg/kg, po after 3 hrs (reference value: 0.10 +/- 0.02 mequiv/kg); assay type: functional, Canis lupus familiaris, Urine
Canis familiaris [13] = assay: Diuretic effect in mongrel dog assessed as urinary excretion of Cl- at 1 mg/kg, po after 3 hrs (reference value: 0.08 +/- 0.02 mequiv/kg); assay type: functional, Canis lupus familiaris, Urine
Canis familiaris [14] = assay: Diuretic effect in mongrel dog assessed as urinary excretion of K+ at 10 mg/kg, iv after 3 hrs (reference value: 0.16 +/- 0.01 mequiv/kg); assay type: functional, Canis lupus familiaris, Urine
Canis familiaris [15] = assay: Diuretic effect in mongrel dog assessed as urinary excretion of Cl- at 10 mg/kg, iv after 3 hrs (reference value: 0.08 +/- 0.02 mequiv/kg); assay type: functional, Canis lupus familiaris, Urine
Canis familiaris [16] = assay: Diuretic effect in mongrel dog assessed as urinary excretion of water at 10 mg/kg, iv after 3 hrs (reference value: 0.93 +/- 0.35 ml/kg); assay type: functional, Canis lupus familiaris, Urine
Canis familiaris [17] = assay: Diuretic effect in mongrel dog assessed as urinary excretion of Na+ at 10 mg/kg, iv after 3 hrs (reference value: 0.10 +/- 0.02 mequiv/kg); assay type: functional, Canis lupus familiaris, Urine
Canis familiaris [18] = assay: Diuretic effect in mongrel dog assessed as urinary excretion of K+ at 0.25 mg/kg, iv after 3 hrs (reference value: 0.16 +/- 0.01 mequiv/kg); assay type: functional, Canis lupus familiaris, Urine
Canis familiaris [19] = assay: Diuretic effect in mongrel dog assessed as urinary excretion of water at 0.25 mg/kg, iv after 3 hrs (reference value: 0.93 +/- 0.35 ml/kg); assay type: functional, Canis lupus familiaris, Urine
Canis familiaris [20] = assay: Diuretic effect in mongrel dog assessed as urinary excretion of Na+ at 0.25 mg/kg, iv after 3 hrs (reference value: 0.10 +/- 0.02 mequiv/kg); assay type: functional, Canis lupus familiaris, Urine
Canis familiaris [21] = assay: Diuretic effect in mongrel dog assessed as urinary excretion of Cl- at 0.25 mg/kg, iv after 3 hrs (reference value: 0.08 +/- 0.02 mequiv/kg); assay type: functional, Canis lupus familiaris, Urine
Canis familiaris [22] = assay: Diuretic effect in mongrel dog assessed as urinary excretion of water at 0.1 mg/kg, iv after 3 hrs (reference value: 0.93 +/- 0.35 ml/kg); assay type: functional, Canis lupus familiaris, Urine
Canis familiaris [23] = assay: Diuretic effect in mongrel dog assessed as urinary excretion of Na+ at 0.1 mg/kg, iv after 3 hrs (reference value: 0.10 +/- 0.02 mequiv/kg); assay type: functional, Canis lupus familiaris, Urine
Canis familiaris [24] = assay: Diuretic effect in mongrel dog assessed as urinary excretion of Cl- at 0.1 mg/kg, iv after 3 hrs (reference value: 0.08 +/- 0.02 mequiv/kg); assay type: functional, Canis lupus familiaris, Urine
Canis familiaris [25] = assay: Diuretic effect in mongrel dog assessed as urinary excretion of K+ at 0.1 mg/kg, iv after 3 hrs (reference value: 0.16 +/- 0.01 mequiv/kg); assay type: functional, Canis lupus familiaris, Urine

| Structure (SMILES) | Activity (Canis familiaris [1]) [milliequivalent/kg] | Activity (Canis familiaris [2]) [mL/kg] | Activity (Canis familiaris [3]) [milliequivalent/kg] | Activity (Canis familiaris [4]) [milliequivalent/kg] | Activity (Canis familiaris [2]; Canis lupus familiaris, Urine) | further results |
| --- | --- | --- | --- | --- | --- | --- |
| CCCOc1cc(C(=O)O)cc(NC=O)c1C(=O)c1ccccc1 | 1.2 | 10 | 0.52 | 2 | – | – |
| CNc1cc(C(=O)O)cc(OCc2ccccc2)c1C(=O)c1ccccc1 | – | – | – | – | inactive | Activity (Canis familiaris [1]; Canis lupus familiaris, Urine): inactive; Activity (Canis familiaris [3]; Canis lupus familiaris, Urine): inactive; Activity (Canis familiaris [4]; Canis lupus familiaris, Urine): inactive |
| CNC(=O)Nc1cc(C(=O)O)cc(NCc2ccccc2)c1Oc1ccccc1 | 1.1 | 8 | 0.2 | 0.7 | – | – |
| CN(C=O)c1cc(C(=O)O)cc(OCc2ccccc2)c1C(=O)c1ccccc1 | – | – | – | – | Active | Activity (Canis familiaris [1]; Canis lupus familiaris, Urine): Active; Activity (Canis familiaris [3]; Canis lupus familiaris, Urine): Active; Activity (Canis familiaris [4]; Canis lupus familiaris, Urine): Active |
| CCN(C=O)c1cc(C(=O)O)cc(OCc2ccccc2)c1C(=O)c1ccccc1 | – | – | – | – | inactive | Activity (Canis familiaris [1]; Canis lupus familiaris, Urine): inactive; Activity (Canis familiaris [3]; Canis lupus familiaris, Urine): inactive; Activity (Canis familiaris [4]; Canis lupus familiaris, Urine): inactive |
| O=C(O)c1cc(NC(=O)C(F)(F)F)c(C(=O)c2ccccc2)c(OCc2ccccc2)c1 | – | – | – | – | – | Activity (Canis familiaris [5]; Canis lupus familiaris, Urine): inactive |
| O=CNc1cc(C(=O)O)cc(SCc2ccccc2)c1C(=O)c1ccccc1 | – | 26 | 0.27 | 2.8 | – | Activity (Canis familiaris [6]): 10 mL/kg; Activity (Canis familiaris [7]): 3.5 milliequivalent/kg; Activity (Canis familiaris [8]): 0.7 milliequivalent/kg; Activity (Canis familiaris [9]): 0.1 milliequivalent/kg; Activity (Canis familiaris [10]): 0.5 milliequivalent/kg |
| NC(=O)Nc1cc(C(=O)O)cc(NCc2ccccc2)c1Oc1ccccc1 | 1.7 | 13 | 0.33 | 1.3 | – | – |
| O=C(CCl)Nc1cc(C(=O)O)cc(OCc2ccccc2)c1C(=O)c1ccccc1 | – | – | – | – | inactive | – |
| CC(C)CCSc1cc(C(=O)O)cc(NC=O)c1C(=O)c1ccccc1 | – | – | – | – | – | Activity (Canis familiaris [11]): 0.39 milliequivalent/kg; Activity (Canis familiaris [12]): 1.6 milliequivalent/kg; Activity (Canis familiaris [13]): 1.9 milliequivalent/kg; Activity (Canis familiaris [5]): 15 mL/kg |
| CN(C)CC(=O)Nc1cc(C(=O)O)cc(OCc2ccccc2)c1C(=O)c1ccccc1 | – | – | – | – | – | Activity (Canis familiaris [5]; Canis lupus familiaris, Urine): inactive |
| O=CNc1cc(C(=O)O)cc(SCc2ccccc2)c1Oc1ccccc1 | – | – | – | – | inactive | – |
| CCCCOc1cc(C(=O)O)cc(NC(C)=O)c1C(=O)c1ccccc1 | – | – | – | – | – | Activity (Canis familiaris [11]): 0.53 milliequivalent/kg; Activity (Canis familiaris [12]): 2.1 milliequivalent/kg; Activity (Canis familiaris [13]): 2.5 milliequivalent/kg; Activity (Canis familiaris [5]): 18 mL/kg |
| O=CNc1cc(C(=O)O)cc(OCc2ccccc2)c1-c1ccccc1 | 1.6 | 12 | 0.39 | 1.3 | – | – |
| CCC(=O)Nc1cc(C(=O)O)cc(OCc2ccccc2)c1C(=O)c1ccccc1 | 0.9 | 7 | 0.2 | 0.6 | – | – |
| CC(=O)Nc1cc(C(=O)O)cc(NCc2ccccc2)c1Oc1ccccc1 | 2.1 | 11 | 0.55 | 1.4 | – | Activity (Canis familiaris [14]): 0.8 milliequivalent/kg; Activity (Canis familiaris [15]): 3.8 milliequivalent/kg; Activity (Canis familiaris [16]): 27 mL/kg; Activity (Canis familiaris [17]): 2.8 milliequivalent/kg |

| Structure (SMILES) | Activity (Canis familiaris [1]) [milliequivalent/kg] | Activity (Canis familiaris [2]) [mL/kg] | Activity (Canis familiaris [3]) [milliequivalent/kg] | Activity (Canis familiaris [4]) [milliequivalent/kg] | Activity (Canis familiaris [2]; Canis lupus familiaris, Urine) | further results |
| --- | --- | --- | --- | --- | --- | --- |
| O=CNc1cc(C(=O)O)cc(NCc2ccccc2)c1Oc1ccccc1 | 1.3 | 8 | 0.26 | 1.3 | – | Activity (Canis familiaris [18]): 0.23 milliequivalent/kg; Activity (Canis familiaris [19]): 9 mL/kg; Activity (Canis familiaris [20]): 1.1 milliequivalent/kg; Activity (Canis familiaris [21]): 1.5 milliequivalent/kg |
| CN(C)c1cc(C(=O)O)cc(OCc2ccccc2)c1C(=O)c1ccccc1 | – | – | – | – | inactive | Activity (Canis familiaris [1]; Canis lupus familiaris, Urine): inactive; Activity (Canis familiaris [3]; Canis lupus familiaris, Urine): inactive; Activity (Canis familiaris [4]; Canis lupus familiaris, Urine): inactive |
| O=C(O)c1cc(NC(=O)c2ccccc2)c(C(=O)c2ccccc2)c(OCc2ccccc2)c1 | – | – | – | – | inactive | – |
| CCNc1cc(C(=O)O)cc(OCc2ccccc2)c1C(=O)c1ccccc1 | – | – | – | – | inactive | Activity (Canis familiaris [1]; Canis lupus familiaris, Urine): inactive; Activity (Canis familiaris [3]; Canis lupus familiaris, Urine): inactive; Activity (Canis familiaris [4]; Canis lupus familiaris, Urine): inactive |
| CCCCOc1cc(C(=O)O)cc(NC=O)c1C(=O)c1ccccc1 | – | 17 | – | 2.1 | – | Activity (Canis familiaris [22]): 6 mL/kg; Activity (Canis familiaris [23]): 0.5 milliequivalent/kg |
| CC(=O)Nc1cc(C(=O)O)cc(OCc2ccccc2)c1C(=O)c1ccccc1 | 3 | 14 | 0.45 | 1.3 | – | – |
| O=CNc1cc(C(=O)O)cc(SCc2ccccc2)c1-c1ccccc1 | – | – | – | – | inactive | – |
| O=CNc1cc(C(=O)O)cc(SCc2ccsc2)c1Oc1ccccc1 | 1.9 | 11 | 0.45 | 1.3 | – | – |
| NS(=O)(=O)c1cc(C(=O)O)cc(OCc2ccccc2)c1C(=O)c1ccccc1 | – | – | – | – | – | Activity (Canis familiaris [6]): 33 mL/kg; Activity (Canis familiaris [22]): 12 mL/kg; Activity (Canis familiaris [23]): 1 milliequivalent/kg; Activity (Canis familiaris [8]): 4.4 milliequivalent/kg; Activity (Canis familiaris [24]): 2 milliequivalent/kg; Activity (Canis familiaris [9]): 0.89 milliequivalent/kg; Activity (Canis familiaris [25]): 0.42 milliequivalent/kg; Activity (Canis familiaris [10]): 3.6 milliequivalent/kg |
| CC(=O)Nc1cc(C(=O)O)cc(NCc2ccccc2)c1C(=O)c1ccccc1 | 0.4 | 6 | 0.21 | 0.4 | – | Activity (Canis familiaris [14]): 0.58 milliequivalent/kg; Activity (Canis familiaris [15]): 2.2 milliequivalent/kg; Activity (Canis familiaris [16]): 22 mL/kg; Activity (Canis familiaris [17]): 1.7 milliequivalent/kg |
| CCCSc1cc(C(=O)O)cc(NC=O)c1C(=O)c1ccccc1 | 1.2 | 8 | 0.42 | 1 | – | – |
| O=CNc1cc(C(=O)O)cc(NCc2ccccc2)c1-c1ccccc1 | 1.7 | 12 | 0.43 | 1.6 | – | – |
| CC(=O)Nc1cc(C(=O)O)cc(OCc2ccccc2)c1-c1ccccc1 | 1.1 | 8 | 0.22 | 1 | – | – |
| C=CCSc1cc(C(=O)O)cc(NC=O)c1C(=O)c1ccccc1 | – | – | – | – | inactive | – |
| O=CNc1cc(C(=O)O)cc(OCc2ccsc2)c1C(=O)c1ccccc1 | – | – | – | – | – | Activity (Canis familiaris [18]): 0.49 milliequivalent/kg; Activity (Canis familiaris [11]): 0.64 milliequivalent/kg; Activity (Canis familiaris [19]): 17 mL/kg; Activity (Canis familiaris [12]): 3.1 milliequivalent/kg; Activity (Canis familiaris [20]): 2.2 milliequivalent/kg; Activity (Canis familiaris [13]): 4.1 milliequivalent/kg; Activity (Canis familiaris [21]): 2.8 milliequivalent/kg; Activity (Canis familiaris [5]): 26 mL/kg |
| CCCNC(=O)Nc1cc(C(=O)O)cc(NCc2ccccc2)c1Oc1ccccc1 | 0.3 | 4 | 0.12 | 0.4 | – | Activity (Canis familiaris [14]): 0.4 milliequivalent/kg; Activity (Canis familiaris [15]): 1.9 milliequivalent/kg; Activity (Canis familiaris [16]): 11 mL/kg; Activity (Canis familiaris [17]): 1.1 milliequivalent/kg |
